According to publication PMC10783014, “Structure-based virtual screening and in vitro validation of inhibitors of cyclic dinucleotide phosphodiesterases ENPP1 and CdnP” (Microbiology Spectrum, 2023):
pIC50: −log10 of the molar value. ≈ marks a conversion by molar mass, not a printed value. Where “and” joins values, the source holds several entries; their conditions need not be identical. Equal entries are not always repeated. Where two headings read alike, the source gives them in different places.

Tests used:
human ENPP1 = target: T1, human ENPP1 (Homo sapiens, UniProt P22413); assay: Luminescence-based AMP-Glo ENPP1 enzyme inhibition assay with 2′,3′-cGAMP substrate; format: biochemical; details: 2′,3′-cGAMP 300 µM, ENPP1 5 µM
T1 construct: purchased Origene
T1 sequence (P22413 1-925): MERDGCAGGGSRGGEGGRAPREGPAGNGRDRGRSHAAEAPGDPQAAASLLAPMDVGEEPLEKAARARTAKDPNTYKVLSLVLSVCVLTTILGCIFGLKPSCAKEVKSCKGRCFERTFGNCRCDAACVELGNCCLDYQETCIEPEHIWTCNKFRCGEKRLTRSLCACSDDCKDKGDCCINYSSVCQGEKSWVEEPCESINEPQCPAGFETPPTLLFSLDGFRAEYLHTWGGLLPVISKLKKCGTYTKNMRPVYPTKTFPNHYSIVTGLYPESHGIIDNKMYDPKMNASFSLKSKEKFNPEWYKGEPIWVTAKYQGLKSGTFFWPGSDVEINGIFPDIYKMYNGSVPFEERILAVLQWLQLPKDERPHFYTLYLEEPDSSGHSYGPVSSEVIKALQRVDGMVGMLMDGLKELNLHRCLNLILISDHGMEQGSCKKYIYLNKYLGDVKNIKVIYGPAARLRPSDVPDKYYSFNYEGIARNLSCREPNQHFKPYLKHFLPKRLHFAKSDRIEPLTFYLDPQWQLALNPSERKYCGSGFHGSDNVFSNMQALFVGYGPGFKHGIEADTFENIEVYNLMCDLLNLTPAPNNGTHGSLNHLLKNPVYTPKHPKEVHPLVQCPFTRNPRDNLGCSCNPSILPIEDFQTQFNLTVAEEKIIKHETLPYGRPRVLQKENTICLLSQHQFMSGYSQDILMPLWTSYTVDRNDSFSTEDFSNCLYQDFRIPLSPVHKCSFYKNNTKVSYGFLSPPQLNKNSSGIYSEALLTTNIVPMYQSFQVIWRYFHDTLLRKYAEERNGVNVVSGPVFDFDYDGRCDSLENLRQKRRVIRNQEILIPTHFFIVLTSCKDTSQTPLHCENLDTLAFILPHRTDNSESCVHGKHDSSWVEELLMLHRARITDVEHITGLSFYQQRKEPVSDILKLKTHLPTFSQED

Vero cells = assay: Vero cell cytotoxicity, resazurin dye reduction assay; format: cell-based, African green monkey; details: for IC50: Chlorocebus sabaeus, Vero, 48 h
M.tb CdnP [1] = target: T2, M.tb CdnP (Mycobacterium tuberculosis, UniProt P71615); assay: biochemical
T2 sequence (P71615 whole entry, looked up): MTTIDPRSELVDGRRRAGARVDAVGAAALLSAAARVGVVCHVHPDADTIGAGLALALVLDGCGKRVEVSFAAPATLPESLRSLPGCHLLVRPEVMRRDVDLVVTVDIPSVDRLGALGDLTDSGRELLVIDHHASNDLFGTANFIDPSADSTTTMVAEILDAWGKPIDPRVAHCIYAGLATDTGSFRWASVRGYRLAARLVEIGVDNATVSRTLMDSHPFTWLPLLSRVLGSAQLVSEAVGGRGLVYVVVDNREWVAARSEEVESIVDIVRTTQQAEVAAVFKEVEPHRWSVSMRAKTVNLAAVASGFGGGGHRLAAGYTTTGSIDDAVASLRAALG

M.tb CdnP [2] = target: T2, M.tb CdnP; format: biochemical
[3] = system: primary human monocyte-derived macrophages (hMDMs); assay: IFN-β release by human monocyte-derived macrophages after 2′,3′-cGAMP transfection (ELISA); format: cell-based
[4] = system: RAW-Blue IRF3 ISG reporter macrophages; assay: IRF3 induction in RAW-Blue IRF3-SEAP reporter macrophages after 2′,3′-cGAMP transfection (QUANTI-Blue); format: cell-based, mouse; details: 165 µM E-3 plus 1 nM 2′,3′-cGAMP, 24 h
[5] = Vero cell growth inhibition, 48 h then resazurin overnight
[6] = Vero cell growth inhibition, 48 h then resazurin overnight, read-out: IC50 Vero cells
[7] = read-out: IC50 Vero cells, Vero cell growth inhibition, 48 h then resazurin overnight
[8] = 1 nM 2′,3′-cGAMP in the presence of 165 µM E-3, 24 h

With `c1cc2c(cc1C(N1CCNCC1)N1CCNCC1)OCO2` [Inhibitor E-12] the pIC50 (human ENPP1) was 4.39, the “IC50 ENPP1” value (human ENPP1) was 12.5 µg/mL (≈ 41.1 µM) and the “IC50 Vero cells” value (Vero cells; [5]) was > 100 µg/mL. The pIC50 (Vero cells; [6]) was < 3.48.
`CC(OCCCCOC(C)n1cnc2c(=O)nc[nH]c21)n1cnc2c(=O)nc[nH]c21` (stereo not drawn) [Inhibitor C-13] was tested, and the pIC50 (M.tb CdnP [1]; IC50 CdnP) was 5.02, the pIC50 (human ENPP1) was < 3.62 and the IC50 (Vero cells; [6]) was > 100 µg/mL. The pIC50 (Vero cells; [6]) was < 3.62.
In the case of `O=C(C[N+]12CN3CN(CN(C3)C1)C2)c1ccc2ccccc2c1` [Inhibitor C-5], the “IC50 CdnP” value (M.tb CdnP [1]) was 28.8 (11.2) µg/mL, the pIC50 (M.tb CdnP [1]; read-out: IC50 CdnP) was 4.54 and the pIC50 (human ENPP1) was < 3.59. For the same molecule, the “IC50 ENPP1” value (human ENPP1) was > 100 µg/mL, the “IC50 Vero cells” value (Vero cells; [5]) was 60 µg/mL and the pIC50 (Vero cells; [6]) was 3.81.
`Cc1ccc(S(=O)(=O)NN=c2nc(N3CCCC3)[nH]c(N3CCCC3)n2)cc1` [Inhibitor C-34] was tested, and the pIC50 (M.tb CdnP [1]; IC50 CdnP) was 4.88, the pIC50 (human ENPP1) was 4.20 and the IC50 (Vero cells; [6]) was > 100 µg/mL. For the same molecule, the pIC50 (Vero cells; [6]) was < 3.61.
`NNc1nc(N2CCCCC2)c2[nH]cnc2n1` [Inhibitor C-76] was tested, and the “IC50 CdnP” value (M.tb CdnP [1]) was 42.9 (10) µg/mL, the pIC50 (M.tb CdnP [1]; read-out: IC50 CdnP) was 4.37 and the pIC50 (human ENPP1) was < 3.37. The “IC50 ENPP1” value (human ENPP1) was > 100 µg/mL, the “IC50 Vero cells” value (Vero cells; [5]) was > 100 µg/mL and the pIC50 (Vero cells; [6]) was < 3.37.
In the case of `O=C(Nc1n[nH]c(NC(=O)c2ccccc2)n1)c1ccccc1` [Inhibitor E-27], the pIC50 (human ENPP1) was 4.79, the IC50 (Vero cells; [6]) was > 100 µg/mL and the pIC50 (Vero cells; [6]) was < 3.49.
With c-di-AMP the Km (M.tb CdnP [2]) was 51.4 µM and the “Vmax for CdnP” value (M.tb CdnP [2]) was 0.5664 µM/min.
For `Cc1c2cc[n+](C)cc2c(COC2OC(CO)C(O)C2O)c2c3ccccc3n(C)c12` (stereo not drawn) [Inhibitor C-29], the pIC50 (M.tb CdnP [1]; IC50 CdnP) was 4.85, the pIC50 (human ENPP1) was 4.71 and the IC50 (Vero cells; [6]) was > 100 µg/mL. For the same molecule, the pIC50 (Vero cells; [6]) was < 3.63.
For `O=C(NNc1nc(NC2CCCCC2)nc(NC2CCCCC2)n1)c1ccccc1` [Inhibitor E-60], the pIC50 (human ENPP1) was 5.01, the IC50 (Vero cells; [6]) was > 100 µg/mL and the pIC50 (Vero cells; [6]) was < 3.61.
With `NC1CC2NC3CCCCC3NC2CC1N` (stereo not drawn) [Inhibitor E-37] the pIC50 (human ENPP1) was 4.35, the IC50 (Vero cells; [7]) was > 100 µg/mL and the pIC50 (Vero cells; [7]) was < 3.35.
In the case of `O=S(=O)(NN=c1nc(N2CCCC2)[nH]c(N2CCCC2)n1)c1ccccc1` [Inhibitor C-33], the pIC50 (M.tb CdnP [1]; IC50 CdnP) was 4.73, the pIC50 (human ENPP1) was 4.22 and the IC50 (Vero cells; [6]) was > 100 µg/mL. For the same molecule, the pIC50 (Vero cells; [6]) was < 3.59.
With `Cc1ccc(Nc2nc(N)nc(Nc3ccc4ccccc4c3)n2)cc1` [Inhibitor E-3] the IFN-β release [3, 8] was 95 pg/mL, the “fold increase in IFN-β release versus cGAMP alone” value [3, 8] was 2.1 fold and the IFN-β release ([3]; 165 µM E-3 alone, no cGAMP) was 10 pg/mL. For the same molecule, the pIC50 (human ENPP1) was 4.58 and 4.53, the IC50 (Vero cells; [6]) was > 100 µg/mL and the pIC50 (Vero cells; [6]) was < 3.58. For the same molecule, the “IRF induction (SEAP signal)” value [4] was 1.1 A655 units and the “fold increased IRF signal versus cGAMP alone” value [4] was 2.75 fold.
